“And” between values parts separate entries of the source, which are not always exact repeats. Equal entries are not always repeated.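 96-well plates; 48 h exposure; 5 concentrations. Endpoints by linear interpolation between flanking doses. Not reached: highest tested concentration assigned. GI50 is the concentration that inhibits growth by half. The concentration for full growth arrest is given as TGI.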
Legend:
Experiment in all cases: NCI tumour cell line growth inhibition, 48 h
HOP-18 NSCLC = test system: HOP-18 NSCLC
XF 498 CNS = test system: XF 498 CNS
KM20L2 colon = test system: KM20L2 colon
DMS 273 small cell lung = test system: DMS 273 small cell lung
M19-MEL melanoma = test system: M19-MEL melanoma
RXF-631 renal = test system: RXF-631 renal
LXFL 529 NSCLC = test system: LXFL 529 NSCLC
DMS 114 small cell lung = test system: DMS 114 small cell lung
MDA-N = test system: MDA-N
P388 leukemia = test system: P388 leukemia
SN12K1 renal = test system: SN12K1 renal
P388/ADR leukemia = test system: P388/ADR leukemia

## COC(=O)CC1(O)C(=O)OCc2c1cc1n(c2=O)Cc2c-1nc1ccccc1c2OC (stereo not given)
HOP-18 NSCLC
  TGI: > 100 µM
XF 498 CNS
  TGI: 40 µM
KM20L2 colon
  TGI: > 100 µM
DMS 273 small cell lung
  TGI: 3.35 µM
M19-MEL melanoma
  TGI: > 100 µM
RXF-631 renal
  TGI: > 100 µM
LXFL 529 NSCLC
  TGI: > 100 µM
DMS 114 small cell lung
  TGI: > 33.1 µM

## O=[N+]([O-])c1ccccc1N=Nc1c(O)[nH]c2c(Cl)cccc12
MDA-N
  TGI: > 100 µM

## C/C=C/C=C/c1cc2cc3c(c(O)c2c(=O)[nH]1)C1(CC3)C(O)=c2c(=O)c3c(=O)cc(OC)c(=O)c=3c(=O)c2=C1O (stereo not given)
HOP-18 NSCLC
  TGI: 7.47 µM
KM20L2 colon
  TGI: 10.9 µM
DMS 273 small cell lung
  TGI: 7.82 µM
M19-MEL melanoma
  TGI: 13 µM
MDA-N
  TGI: 11.9 µM
RXF-631 renal
  TGI: > 100 µM
LXFL 529 NSCLC
  TGI: 4.56 µM
DMS 114 small cell lung
  TGI: 4.83 µM

## Cc1cc(Cl)ccc1N=C1NC(=O)C(CC(=O)Nc2cccc(Cl)c2)S1 (stereo not given)
HOP-18 NSCLC
  TGI: > 100 µM
XF 498 CNS
  TGI: > 100 µM
KM20L2 colon
  TGI: > 100 µM
DMS 273 small cell lung
  TGI: > 100 µM
M19-MEL melanoma
  TGI: > 100 µM
LXFL 529 NSCLC
  TGI: > 100 µM
DMS 114 small cell lung
  TGI: > 100 µM

## O=C1/C(=C/c2ccc(Cl)cc2)CCC1CNc1ccc(Cl)cc1 (stereo not given)
HOP-18 NSCLC
  TGI: > 74.5 µM
XF 498 CNS
  TGI: 29.5 µM
KM20L2 colon
  TGI: 12.6 µM
DMS 273 small cell lung
  TGI: > 39.9 µM
M19-MEL melanoma
  TGI: > 50.4 µM
MDA-N
  TGI: 40.4 µM
LXFL 529 NSCLC
  TGI: 10.5 µM
DMS 114 small cell lung
  TGI: > 48.3 µM

## Cc1nc2c(C)ccc([N+](=O)[O-])c2c(NCCCN(C)C)c1C
MDA-N
  TGI: > 100 µM

## CCOc1ccc2nc(NC(=O)C(=O)C3C(=O)C(CC4C(=O)c5ccccc5C4=O)C(=O)CC3(C)C)sc2c1 (stereo not given)
MDA-N
  TGI: > 100 µM

## N=C(N)c1ccc2oc3ccc(C(=N)N)cc3c(=O)c2c1
MDA-N
  TGI: > 100 µM

## CC1[C@@]2(CCC(C)(C)O2)O[C@@H]2C=C3C4CCC5Cc6nc7c(nc6C[C@@]5(C)C4C[C@H](O)[C@@]3(C)[C@]12O)CC1CCC2C3=C[C@H]4O[C@@]5(O[C@@](C)(CO)C[C@@H]5O)C(C)[C@@]4(O)[C@]3(C)[C@@H](O)CC2[C@]1(C)C7 (stereo not given in full)
XF 498 CNS
  GI50: 0.00488 µM
KM20L2 colon
  GI50: 0.00289 µM
  TGI: 0.478 µM and 0.089 µM
DMS 273 small cell lung
  GI50: < 0.000365 µM
P388 leukemia
  TGI: 0.734 µM
SN12K1 renal
  TGI: 0.395 µM
M19-MEL melanoma
  GI50: 0.336 µM
  TGI: 0.791 µM
P388/ADR leukemia
  TGI: 1.16 µM
RXF-631 renal
  TGI: 0.213 µM
LXFL 529 NSCLC
  TGI: 0.0824 µM
DMS 114 small cell lung
  GI50: 0.805 nM

## CC(=O)CCC1(c2ccccc2)OC(=O)C(C#N)=C1c1ccccc1 (stereo not given)
XF 498 CNS
  TGI: > 100 µM
KM20L2 colon
  TGI: > 100 µM
DMS 273 small cell lung
  TGI: > 100 µM
M19-MEL melanoma
  TGI: > 100 µM
RXF-631 renal
  TGI: > 100 µM
LXFL 529 NSCLC
  TGI: > 100 µM
DMS 114 small cell lung
  TGI: > 100 µM

## CC(C)c1ccc(O)c(Cc2cc(C(C)C)cc(Cc3cc(C(C)C)ccc3O)c2O)c1
XF 498 CNS
  TGI: 2.73 µM
KM20L2 colon
  TGI: 5.55 µM
M19-MEL melanoma
  TGI: 2.99 µM
LXFL 529 NSCLC
  TGI: 2.81 µM
DMS 114 small cell lung
  TGI: 3.03 µM

## COC(=O)[C@@]12OC[C@]34[C@H]([C@@H](O)[C@@H]1O)[C@@]1(C)CC(=O)C(O)=C(C)[C@@H]1C[C@H]3OC(=O)[C@H](OC(=O)/C=C(\C)C(C)C)[C@@H]24
HOP-18 NSCLC
  GI50: 0.00161 µM
  TGI: 0.016 µM and 0.0848 µM
XF 498 CNS
  TGI: 0.0212 µM
DMS 273 small cell lung
  TGI: 0.000177 µM
P388 leukemia
  TGI: 0.109 µM
SN12K1 renal
  TGI: 0.0541 µM
MDA-N
  GI50: 0.02 µM
  TGI: 0.0345 µM and 0.0321 µM
P388/ADR leukemia
  TGI: 0.692 µM
DMS 114 small cell lung
  GI50: 0.0354 nM
  TGI: 0.000286 µM

## COC(=O)C(=O)C(C(=O)C(=O)Nc1ccc([N+](=O)[O-])cc1)c1nc2ccccc2[nH]c1=O (stereo not given)
HOP-18 NSCLC
  TGI: > 100 µM
XF 498 CNS
  TGI: > 100 µM
KM20L2 colon
  TGI: > 100 µM
DMS 273 small cell lung
  TGI: > 100 µM
M19-MEL melanoma
  TGI: > 100 µM
RXF-631 renal
  TGI: > 100 µM
LXFL 529 NSCLC
  TGI: > 100 µM
DMS 114 small cell lung
  TGI: > 100 µM

## COc1cc2c(oc(=O)c3c4occc4cc(OC)c23)c2cccc(O)c12
HOP-18 NSCLC
  TGI: > 100 µM
XF 498 CNS
  TGI: > 100 µM
KM20L2 colon
  TGI: > 100 µM
DMS 273 small cell lung
  TGI: > 100 µM
M19-MEL melanoma
  TGI: > 100 µM
LXFL 529 NSCLC
  TGI: > 100 µM
DMS 114 small cell lung
  TGI: > 100 µM

Reference: PubChem BioAssay (NCI)
